Measured values taken from ChEMBL document CHEMBL1130808, “Prediction of the GTPase activities by using the semiempirical molecular orbital theory” (Bioorg Med Chem Lett, 1998).

Test: Effect on rate of GTP hydrolysis in the GTP binding protein ras p21

Compound | krel
CNC[C@H](N)C(=O)O | 1
C[C@H](N)C(=O)O | 1.04
CC(C)[C@H](N)C(=O)O | 1.02
CCC[C@H](N)C(=O)O | 0.98
